Source: patent US20090068290A1, “BIFEPRUNOX DOSES FOR TREATING SCHIZOPHRENIA” (priority 2006, published 2009)

Tests used:
Assay type in all cases: in vivo, human
[1] = system: adult subjects with schizophrenia; assay: CGI Severity of Illness score, Clinical Study Three; details: for CGI Severity of Illness Score, Trt Effect / Change from Baseline in CGI Severity of Illness Score, Mean (SD) / Change from Baseline in CGI Severity of Illness Score, Median / mean change (SD) from Baseline to Endpoint in CGI severity of illness score: LOCF; for CGI severity of illness score, treatment effect (bifeprunox—placebo): Endpoint LOCF; for mean change (SD) from Baseline to Endpoint in CGI severity of illness score: ITT
From the text: SECONDARY OBJECTIVES To assess the efficacy of bifeprunox in treating schizophrenia using the Positive Symptom sub-scale score of the PANSS, the Negative Symptom sub-scale score of the PANSS, the General Psychopathology sub-scale of the PANSS, Brief Psychiatric Rating Scale (BPRS) total score derived from the PANSS, BPRS psychosis score derived from the PANSS, the Clinical Global Impression Severity of Illness score (CGI-S), the Clinical Global Impression Improvement score (CGI-I), CGI-I responder rate, PANSS responder rate based on the PANSS total score, Calgary Depression Scale for Schizophrenia (CDSS), and Subject Satisfaction rating.
There were four treatment arms in this study, approximately 144 subjects per arm. […] After completing the Single-Blind Placebo Lead-in Period of at least three days, bifeprunox-treated subjects were titrated from 0.25 mg up to 20 mg/day or 30 mg/day according to a standardized titration scheme over a seven- or eight-day period, respectively. When the assigned dose was reached, subjects were maintained at that dose for the remainder of the six week treatment period. […] Subjects were hospitalized (if not already inpatients) after eligibility for study entry was verified, starting from the Screening Visit until at least 10 days after Baseline. Subjects could be hospitalized longer than 10 days if considered medically necessary by the Investigator. Rating scale assessments for efficacy and abnormal movement disorders were done weekly except for Week 5. […] Subject satisfaction with study medication was assessed at Week 6.

[2] = system: adult subjects with schizophrenia; assay: CGI responder rate, Clinical Study One
Protocol: There were five treatment groups in this study. […] Study medication was administered once daily. After Baseline measurements were performed, the titration phase was begun. Bifeprunox treated subjects were titrated up to 5 mg, 10 mg or 20 mg according to a standardized titration schedule (Day 1: 0.125 mg, Day 2: 0.25 mg, Day 3: 0.5 mg, Day 4: 1.0 mg, Day 5: 2.0 mg, Day 6: 5.0 mg, Day 7: 10.0 mg, Day 8: 20 mg). When the assigned dose was reached, subjects were maintained at that dose for the remainder of the six-week treatment period.
CLINICAL STUDY ONE: A CGI responder is defined as a subject who is categorized as “very much improved” or “much improved” on the CGI Improvement scale.

[3] = Body weight, Clinical Study Two
[4] = system: adult subjects with schizophrenia; assay: SAS, BAS and AIMS movement scales, Clinical Study Two
Protocol: Pharmacokinetic (PK) data of bifeprunox in schizophrenic subjects were also assessed and are presented in a separate report (combined with data from study S1543003).
The SAS is used to measure Parkinsonian-type symptoms in patients exposed to antipsychotics. The scale consists of 10 items, each rated on a 5-point scale ranging from 0 (complete absence of the condition) to 4 (presence of the condition in extreme form). The SAS total score is defined as the sum of all item scores, and the range is 0 to 40. A SAS total score of up to 3 is considered normal.
The BAS is used to rate observable, restless movements of drug-induced akathisia as well as the subjective awareness of restlessness and any distress associated with the akathisia. The scale consists of 3 items that is rated from 0 (no evidence of akathisia) to 3 (severe akathisia). The BAS total score is defined as the sum of the these three BAS item scores and ranges from is 0 to 9. In addition, a global clinical assessment of akathisia is rated from 0 (no evidence of akathisia) to 5 (severe akathisia).
The AIMS, designed to record the occurrence of dyskinetic movements, consists of 12 items. Items 1 to 7 measure specific involuntary movements on a scale from 0 (none) to 4 (severe). Items 8 to 10 measure global assessment of abnormal movement on a scale from 0 (no awareness) to 4 (aware, severe distress). Items 11 and 12 are questions regarding the dental condition of the patient, with yes/no answers. The total score is calculated by summing AIMS items 1 through 10 and ranges from 0 to 40; the non-global total score is calculated by summing items 1 through 7.

[5] = system: adult subjects with schizophrenia; assay: PANSS total score, Clinical Study Three (6-week, olanzapine-referenced); details: for Change from Baseline in PANSS Total Score, Mean (SD) / Change from Baseline in PANSS Total Score, Median / PANSS Total Score, Trt Effect (difference between bifeprunox and placebo): LOCF, ITT; for PANSS Total Score, Trt Effect (difference between bifeprunox and placebo): ANCOVA
Protocol: There were four treatment arms in this study, approximately 144 subjects per arm. […] After completing the Single-Blind Placebo Lead-in Period of at least three days, bifeprunox-treated subjects were titrated from 0.25 mg up to 20 mg/day or 30 mg/day according to a standardized titration scheme over a seven- or eight-day period, respectively. When the assigned dose was reached, subjects were maintained at that dose for the remainder of the six week treatment period. […] Subjects were hospitalized (if not already inpatients) after eligibility for study entry was verified, starting from the Screening Visit until at least 10 days after Baseline. Subjects could be hospitalized longer than 10 days if considered medically necessary by the Investigator. Rating scale assessments for efficacy and abnormal movement disorders were done weekly except for Week 5. Safety assessments were performed at Screening, during treatment and at the end of the study. Subject satisfaction with study medication was assessed at Week 6. Samples of whole blood were obtained at Weeks 2, 4, and 6 for determination of bifeprunox in plasma.
Test Product, Dose and Mode of Administration: Bifeprunox tablets, total daily dose 20 mg or 30 mg (one 20 mg tablet and one 10 mg tablet) administered orally using a once daily dosing regimen.

[6] = Bifeprunox 20 mg, Week 6/Endpoint
[7] = Bifeprunox 30 mg, Week 6/Endpoint

O=c1[nH]c2cccc(N3CCN(Cc4cccc(-c5ccccc5)c4)CC3)c2o1 [Bifeprunox, 7-[4-([1,1′-biphenyl]-3-ylmethyl)-1-piperazinyl]-2(3H)-benzoxazolone]
CGI Severity of Illness Score, Trt Effect ([1]; 20 mg versus placebo, Week 6/Endpoint): −0.13 | Change from Baseline in CGI Severity of Illness Score, Mean (SD) ([1]; 20 mg, Week 1): −0.23 (0.63) | Change from Baseline in CGI Severity of Illness Score, Median ([1]; 20 mg, Week 1): 0.0 | Change from Baseline in CGI Severity of Illness Score, Mean (SD) ([1]; 20 mg, Week 2): −0.48 (0.81) | Change from Baseline in CGI Severity of Illness Score, Median ([1]; 20 mg, Week 2): 0.0 | Change from Baseline in CGI Severity of Illness Score, Mean (SD) ([1]; 20 mg, Week 3): −0.59 (0.89) | Change from Baseline in CGI Severity of Illness Score, Median ([1]; 20 mg, Week 3): −1.0 | Change from Baseline in CGI Severity of Illness Score, Mean (SD) ([1]; 20 mg, Week 4): −0.65 (0.95) | Change from Baseline in CGI Severity of Illness Score, Median ([1]; 20 mg, Week 4): −1.0 | Change from Baseline in CGI Severity of Illness Score, Mean (SD) ([1]; 20 mg, Week 6/Endpoint): −0.63 (0.98) | Change from Baseline in CGI Severity of Illness Score, Median ([1]; 20 mg, Week 6/Endpoint): −1.0 | CGI Severity of Illness Score, Trt Effect ([1]; 30 mg versus placebo, Week 6/Endpoint): −0.09 | Change from Baseline in CGI Severity of Illness Score, Mean (SD) ([1]; 30 mg, Week 1): −0.26 (0.60) | Change from Baseline in CGI Severity of Illness Score, Median ([1]; 30 mg, Week 1): 0.0 | Change from Baseline in CGI Severity of Illness Score, Mean (SD) ([1]; 30 mg, Week 2): −0.41 (0.76) | Change from Baseline in CGI Severity of Illness Score, Median ([1]; 30 mg, Week 2): 0.0 | Change from Baseline in CGI Severity of Illness Score, Mean (SD) ([1]; 30 mg, Week 3): −0.50 (0.90) | Change from Baseline in CGI Severity of Illness Score, Median ([1]; 30 mg, Week 3): 0.0 | Change from Baseline in CGI Severity of Illness Score, Mean (SD) ([1]; 30 mg, Week 4): −0.57 (0.89) | Change from Baseline in CGI Severity of Illness Score, Median ([1]; 30 mg, Week 4): −1.0 | Change from Baseline in CGI Severity of Illness Score, Mean (SD) ([1]; 30 mg, Week 6/Endpoint): −0.62 (1.03) | Change from Baseline in CGI Severity of Illness Score, Median ([1]; 30 mg, Week 6/Endpoint): −1.0 | CGI severity of illness score, treatment effect (bifeprunox—placebo) ([1]; bifeprunox 20 mg): −0.13 | mean change (SD) from Baseline to Endpoint in CGI severity of illness score ([1]; bifeprunox 20 mg): −0.63 (0.98) | CGI severity of illness score, treatment effect (bifeprunox—placebo) ([1]; bifeprunox 30 mg): −0.09 | mean change (SD) from Baseline to Endpoint in CGI severity of illness score ([1]; bifeprunox 30 mg): −0.62 (1.03) | CGI Responder at Endpoint (LOCF), % ([2]; 5 mg): 33% | CGI Responder at Endpoint (LOCF), % ([2]; 10 mg): 19% | CGI Responder at Endpoint (LOCF), % ([2]; 20 mg): 25% | Weight, Baseline Mean of subjects with Endpoint change ([3]; Bifeprunox 30 mg): 168.1 lbs | Weight, Baseline Mean of subjects with Week 6 change ([3]; Bifeprunox 30 mg): 166.1 lbs | Weight, Baseline, Max ([3]; Bifeprunox 30 mg): 360 lbs | Weight, Baseline, Mean (SD) ([3]; Bifeprunox 30 mg): 169.2 (55.3) lbs | Weight, Baseline, Median ([3]; Bifeprunox 30 mg): 161 lbs | Weight, Baseline, Min ([3]; Bifeprunox 30 mg): 84 lbs | Weight, Change from Baseline at Endpoint, Max ([3]; Bifeprunox 30 mg): 9 lbs | Weight, Change from Baseline at Endpoint, Mean (SD) ([3]; Bifeprunox 30 mg): −2.2 (6.7) lbs | Weight, Change from Baseline at Endpoint, Median ([3]; Bifeprunox 30 mg): 0 lbs | Weight, Change from Baseline at Endpoint, Min ([3]; Bifeprunox 30 mg): −32 lbs | Weight, Change from Baseline at Week 6, Max ([3]; Bifeprunox 30 mg): 8 lbs | Weight, Change from Baseline at Week 6, Mean (SD) ([3]; Bifeprunox 30 mg): −4.3 (8.2) lbs | Weight, Change from Baseline at Week 6, Median ([3]; Bifeprunox 30 mg): −2 lbs | Weight, Change from Baseline at Week 6, Min ([3]; Bifeprunox 30 mg): −32 lbs | mean weight change at Endpoint ([3]; Bifeprunox 30 mg): −2.2 lbs | Weight, Baseline Mean of subjects with Endpoint change ([3]; Bifeprunox 40 mg): 160.7 lbs | Weight, Baseline Mean of subjects with Week 6 change ([3]; Bifeprunox 40 mg): 162.0 lbs | Weight, Baseline, Max ([3]; Bifeprunox 40 mg): 378 lbs | Weight, Baseline, Mean (SD) ([3]; Bifeprunox 40 mg): 161.9 (46.6) lbs | Weight, Baseline, Median ([3]; Bifeprunox 40 mg): 155 lbs | Weight, Baseline, Min ([3]; Bifeprunox 40 mg): 84 lbs | Weight, Change from Baseline at Endpoint, Max ([3]; Bifeprunox 40 mg): 15 lbs | Weight, Change from Baseline at Endpoint, Mean (SD) ([3]; Bifeprunox 40 mg): −1.9 (5.8) lbs | Weight, Change from Baseline at Endpoint, Median ([3]; Bifeprunox 40 mg): −1 lbs | Weight, Change from Baseline at Endpoint, Min ([3]; Bifeprunox 40 mg): −18 lbs | Weight, Change from Baseline at Week 6, Max ([3]; Bifeprunox 40 mg): 10 lbs | Weight, Change from Baseline at Week 6, Mean (SD) ([3]; Bifeprunox 40 mg): −3.1 (5.8) lbs | Weight, Change from Baseline at Week 6, Median ([3]; Bifeprunox 40 mg): −2 lbs | body weight (in words) ([3]; bifeprunox 30, 40 mg, 6 weeks): Small comparable decreases in body weight | SAS shifts from normal at Baseline to abnormal at Endpoint ([4]; Bifeprunox 30 mg): < 1% | SAS shifts from normal at Baseline to abnormal at Endpoint ([4]; Bifeprunox 40 mg): 4% | subjects with abnormal SAS scores at Endpoint ([4]; Bifeprunox 40 mg): 7% | Change from Baseline in PANSS Total Score, Mean (SD) ([5]; Bifeprunox 20 mg, Week 1): −5.6 (11.7) | Change from Baseline in PANSS Total Score, Median ([5]; Bifeprunox 20 mg, Week 1): −5 | Change from Baseline in PANSS Total Score, Mean (SD) ([5]; Bifeprunox 20 mg, Week 2): −10.2 (14.8) | Change from Baseline in PANSS Total Score, Median ([5]; Bifeprunox 20 mg, Week 2): −10 | Change from Baseline in PANSS Total Score, Mean (SD) ([5]; Bifeprunox 20 mg, Week 3): −12.6 (16.9) | Change from Baseline in PANSS Total Score, Median ([5]; Bifeprunox 20 mg, Week 3): −13 | Change from Baseline in PANSS Total Score, Mean (SD) ([5]; Bifeprunox 20 mg, Week 4): −13.3 (18.7) | Change from Baseline in PANSS Total Score, Median ([5]; Bifeprunox 20 mg, Week 4): −13 | Change from Baseline in PANSS Total Score, Mean (SD) [5, 6]: −13.8 (19.9) | Change from Baseline in PANSS Total Score, Median [5, 6]: −14 | PANSS Total Score, Trt Effect (difference between bifeprunox and placebo) [5, 6]: −3.5 | Change from Baseline in PANSS Total Score, Median ([5]; Bifeprunox 30 mg, Week 1): −6 | Change from Baseline in PANSS Total Score, Mean (SD) ([5]; Bifeprunox 30 mg, Week 2): −8.5 (15.6) | Change from Baseline in PANSS Total Score, Median ([5]; Bifeprunox 30 mg, Week 2): −9 | Change from Baseline in PANSS Total Score, Mean (SD) ([5]; Bifeprunox 30 mg, Week 3): −11.1 (18.0) | Change from Baseline in PANSS Total Score, Median ([5]; Bifeprunox 30 mg, Week 3): −11 | Change from Baseline in PANSS Total Score, Mean (SD) ([5]; Bifeprunox 30 mg, Week 4): −12.0 (18.6) | Change from Baseline in PANSS Total Score, Median ([5]; Bifeprunox 30 mg, Week 4): −13 | Change from Baseline in PANSS Total Score, Mean (SD) [5, 7]: −13.1 (20.2) | Change from Baseline in PANSS Total Score, Median [5, 7]: −13 | PANSS Total Score, Trt Effect (difference between bifeprunox and placebo) [5, 7]: −2.2 | efficacy compared to placebo, primary and key secondary efficacy parameters ([5]; bifeprunox 20 mg and 30 mg, Endpoint): did not demonstrate efficacy as compared to the placebo group
